These results are taken from patent publication US20100021938A1, “Diagnosis and Prediction of Alzheimer's Disease” (priority 2008, published 2010).

Test [1] concerns human platelets. The test is described as follows: sAPPα release by human platelets, Western blot of supernatant (antibody 6E10). The format is cell-based. Conditions: for sAPPα release by washed platelets: collagen up to 5 μg/ml, ADP up to 25 μM. The procedure:
FIG. 2: sAPPα release is mediated through G protein-coupled receptors. Human platelets (600,000 cells/μl) were incubated with 20 μM arachidonic acid (AA), U46,619 (500 nM), PAR1-AP (100 μM), PAR4-AP (200 μM) or thrombin (1 U/ml) for 1 h. The cells were then pelleted at 10,000×g for 15 min and the levels of sAPPα in the supernatant were determined by Western blot analysis using the antibody 6E10 (Calbiochem).
FIG. 3: The effect of arachidonic acid is mediated by the TP receptor. Left panel: Human platelets were incubated by increasing concentrations of U46,619 and sAPPa was analyzed in the supernatant as described for FIG. 2. Right panel: Human platelets were pre-incubated for 15 min with increasing concentration of an antagonist of the TP receptor, SQ29,548, prior addition of 7.5 μM of arachidonic acid. sAPPα release was analyzed by western blot.
FIG. 4: Activation of PGI2 receptor inhibits sAPPa release triggered by U46,619. Human platelets were pre-incubated for 30 min with increasing concentrations of carbaprostacylin prior addition of 500 nM of U46,619. After 1 h the levels of sAPPa in the supernatant were determined by western blot analysis. Protein bands were scanned and the pixels integrated. sAPPa release is expressed as a percent of maximum where no CP was added.
FIG. 5: PGE2 potentiates the effect of a sub-efficacious concentration of arachidonic acid. Washed platelets were pre-incubated for 2 min with increasing concentrations of PGE2 or vehicle prior addition of 0.5 μM of arachidonic acid. After 1 h, sAPPα release in the supernatant was determined by Western blot analysis as described in FIG. 2. Protein bands were scanned and the pixels integrated. sAPPα release is expressed as a percent of the maximum obtained with 7.5 nM PGE2 and 0.5 μM arachidonic acid.
Secretion of sAPPα has been analyzed in human platelets in response to various agonists.
A general note: Immunoblotting shows a protein as a band on a membrane.

Test [2] concerns the target T1, M1 muscarinic receptor (M1mAChR) (Homo sapiens, UniProt P11229).
T1 construct: host or cells: patients with AD (endogenous receptor, in vivo)
T1 sequence (P11229 1-460): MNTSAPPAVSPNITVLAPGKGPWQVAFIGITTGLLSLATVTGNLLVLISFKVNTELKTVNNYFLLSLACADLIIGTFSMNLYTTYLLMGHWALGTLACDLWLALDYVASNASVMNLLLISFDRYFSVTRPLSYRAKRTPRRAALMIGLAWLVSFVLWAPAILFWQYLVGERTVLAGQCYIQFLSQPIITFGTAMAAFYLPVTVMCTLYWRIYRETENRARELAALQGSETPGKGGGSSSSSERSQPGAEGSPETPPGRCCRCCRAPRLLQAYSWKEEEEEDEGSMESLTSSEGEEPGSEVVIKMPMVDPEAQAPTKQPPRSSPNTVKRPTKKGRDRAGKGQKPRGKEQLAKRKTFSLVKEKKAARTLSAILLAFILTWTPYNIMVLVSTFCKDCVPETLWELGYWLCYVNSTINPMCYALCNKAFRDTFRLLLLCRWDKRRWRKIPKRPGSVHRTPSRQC
Conditions: patients with AD (Nitsch et al., 2000); cited from earlier work.

Test [3] has as its system 3xTg-AD mice. The settings on record: cited from earlier work.
The test system of test [4] is human washed platelets. The test is described as follows: sAPPα and sAPPβ released from activated human washed platelets, LC/ESI/MS/MS. Conditions: 300 μl platelets at 600,000 cells/μl activated with 500 nM. The format is cell-based. The procedure: FIG. 10: Detection of the two sAPP isoforms released from human platelets. 300 μl of human washed platelets at 600,000 cells/μl were activated with 500 nM U46,619. sAPPs released in the medium were immunoprecipitated and digested with trypsin. The peptides were analyzed as described above. The product ions y6 and y4 were monitored for TEEISEVK and MDAEFR, respectively. Chromatograms of the two product ions are shown for each sAPP isoform.
Internal standards for each peptide were obtained by incorporation of a [^13C] labeled amino acid. Human washed platelets (600,000 cells/Ml, 300 μl) were activated with 500 nM of U46,619 and the release of sAPPs was analyzed after centrifuging the cells at 2,000×g for 15 min. After immunoprecipitation of the sAPPs and digestion with trypsin, 150 pg of MDAE[^13C]-FR and TEE[^13C]-ISEVK were added as internal standards and the samples were analyzed by LC/ESI/MS/MS using the LCQ Deca XP ion trap mass spectrometer (Thermo Scientific, Waltham, Mass.).

Setting [5] is: 3xTg-AD mice (Caccamo et al., 2006).

Consider `Nc1ncnc2c1ncn2[C@@H]1O[C@H](COP(=O)(O)OP(=O)(O)O)[C@@H](O)[C@H]1O` [ADP], for which the “sAPPα release by washed platelets” value in test [1] is recorded as “had no effect on sAPPα release”.

Turning to `CC1OC2(CS1)CN1CCC2CC1` (centres unmarked) [AF102B], the “levels of amyloid in cerebrospinal fluid” value in test [2] is recorded as “decrease the levels of amyloid in cerebrospinal fluid”. On to `CC[C@@H]1SC2(CCN(C)CC2)NC1=O` [AF267B], for which, in test [3] (setting [5]), the “APP processing via the β-secretase pathway” value is on record as “decreases APP processing via the β-secretase pathway” and the “development of amyloid pathology” value was “decreases development of amyloid pathology”. Besides, the “expression of ADAM 17/TACE” value in test [3] (Caccamo et al., 2006) is reported as “increases expression of ADAM 17/TACE”. With `CCCCC[C@H](O)/C=C/[C@H]1[C@H](O)CC(=O)[C@@H]1C/C=C\CCCC(=O)O` [PGE2], the “potentiation of sAPPα release by sub-efficacious arachidonic acid” value was “this potentiation effect was reversed” in test [1] (concentrations higher than 10 nM, with 0.5 μM arachidonic acid) and “potentiates sAPPα release” in test [1] (low nanomolar concentrations, pre-incubated 2 min prior to 0.5 μM arachidonic acid, 1 h). Also, the “sAPPα release, compound by itself” value in test [1] (highest concentration used, without arachidonic acid) is on record as “had no effect on sAPPα release”. The “concentration giving maximum sAPPα release with 0.5 μM arachidonic acid” value in test [1] (washed platelets, 0.5 μM arachidonic acid, 1 h) turned out to be 7.5 nM. Take `O=C(O)CCC/C=C\C[C@@H]1[C@H](CNNC(=O)Nc2ccccc2)[C@H]2CC[C@@H]1O2` [SQ29,548]: the “effect on sAPPα release triggered by arachidonic acid” value in test [1] (pre-incubated 15 min with increasing concentrations prior to 7.5 μM arachidonic acid) is given as “antagonized”.

For `CCCCC[C@H](O)/C=C/[C@@H]1[C@@H](C/C=C\CCCC(=O)O)[C@H]2CO[C@@H]1C2` [U46,619], in test [1] (human platelets 600,000 cells/μl, 1 h incubation, U46,619 500 nM, PAR1-AP 100 μM, PAR4-AP 200 μM), the “sAPPα release in response to agonist” value is recorded as “gave the same response as 20 μM of arachidonic acid”. In test [1] (human platelets, increasing concentrations), the “concentration giving maximal response of sAPPα release” value is on record as 500 nM. For the same compound, in test [4], the “amount of sAPPα released” value came to 45 pg and the “amount of sAPPβ released” value amounted to 41 pg. On to `CCCCC/C=C\C/C=C\C/C=C\C/C=C\CCCC(=O)O` [arachidonic acid], for which the “concentration giving maximal effect on sAPPα release” value in test [1] (human platelets) was determined as 7.5 µM. With `CCCCC[C@H](O)/C=C/[C@@H]1[C@H]2C/C(=C/CCCC(=O)O)C[C@H]2C[C@H]1O` [carbaprostacyclin], the “effect on sAPPα release triggered by U46,619” value in test [1] (pre-incubated 30 min with increasing concentrations prior to 500 nM U46,619, 1 h) was “antagonized in a dose-dependent manner the effect of U46,619”. Consider collagen, for which, in test [1], the “sAPPα release by washed platelets” value is on record as “failed to trigger release of sAPPα”.
